Counter-ions that a name gives are not always drawn. Like-named read-outs stand apart in the source and are kept apart here.
Tests used:
human neutrophils [1] = test: ROS production by PMA-stimulated purified human neutrophils; format: cell-based; conditions: for ROS production in the presence of PMA: 10 uM concentration; for ROS production in the presence of PMA / IC50 / <90% ROS Inhibition: human neutrophils; for IC50 / <90% ROS Inhibition: PMA stimulated, average of several experiments; for IC50: read-out: ROS Inhibition IC50; for ROS inhibitor effectiveness over 100 nm to 10 uM: PMA stimulated human neutrophils; for <90% ROS Inhibition: concentration
Description: Following blood withdrawal, blood was overlaid on 3% dextran in 0.9% NaCl in a 1:1 ratio and left at RT for 25 min to allow erythrocyte sedimentation. Residual RBCs were lysed by adding water for 30 sec and stopped by adding 2.5% BSA/5×PBS. WBCs were then diluted in 0.5% BSA/1×PBS and total number of cells was counted. Purification of pure neutrophils (HDNs) was done by overlaying blood after RBC sedimentation in a 1:1 ratio on Histopaque-1077. After 30 min centrifugation at 400 g, pure neutrophils were found at the bottom of the tube (pellet). Mononuclear cells (LDF—low density fraction) settle between the Histopaque-1077 and the 0.9% saline.
(§1) A high-throughput screen was performed to find molecules that inhibit ROS production by neutrophils. Extracted human neutrophils were purified and kept in culture. The cells were then exposed to various drugs and ROS production was monitored over time. Compounds that also scavenged hydrogen peroxide (H2O2) and/or lowered neutrophil ATP levels (reflecting toxicity) were removed. The top hits from the screen were selected for further analysis.
Neutrophils not exposed to PMA were used as a negative control and neutrophils exposed to only PMA were used as a positive control.
(§2) PMA was again used to stimulate ROS production in neutrophils and the effects of the drugs were monitored at increasing concentration levels.

mouse neutrophils = test: ROS inhibition in mouse neutrophils; format: cell-based; conditions: average of several experiments; for <90% ROS Inhibition: concentration
From the text: as §2

[2] = tested on: neutrophils isolated from blood; test: Neutrophil survival by FACS (Annexin V and PI double positive = dead); format: cell-based; conditions: 2 hours culture, drugs at 1 uM
Description: To test this hypothesis, neutrophils isolated from blood were cultured with the various drugs (concentration 1 uM) for 2 hours and then neutrophil survival was monitored by FACS. Cells that were double positive for Anexin V staining and PI staining were considered dead.

human neutrophils [3] = test: High-throughput screen for molecules that inhibit ROS production by neutrophils (PMA and fMLP stimulation); format: cell-based
Description: as §1, with “analysis. 160 basal hits were tested for their ability to inhibit neutrophil ROS production. 64 molecules were able to inhibit ROS production in the presence of PMA activation. 67 molecules were able to inhibit ROS production in the presence of N-Formylmethionine-leucyl-phenylalanine (fMLP). Of those 47 molecules were able to inhibit ROS production by both stimulation methods.” for “analysis.”

LPS treated mice = test: ROS in the lungs of LPS treated mice (lung inflammation model); format: in vivo, mouse
Description: (5B) Bar graph of relative ROS levels in the lungs of LPS treated mice, LPS treated mice administered free Stelazine, Stelazine loaded naked liposomes and Stelazine loaded targeting-peptide decorated liposomes. (5C) Images of ROS levels in LPS treated lungs administered various compositions of Stelazine and/or naked or peptide-decorated liposomes (referred to as “TENN”). 4 hours following treatment with the described molecules, animals were injected with luminol and ROS in the lungs was quantified using IVIS.
Mice were given 150 ug LPS by inhalation and left for 2 days. […] The LPS was inhaled on Day 0, and then the dosing of the drugs was performed in the evening of day 1 and the morning of day 2. Three different formulations of Stelazine were tested by IV administration: free Stelazine administered in PBS, Stelazine loaded into liposomes in PBS, and Stelazine loaded into liposomes decorated with neutrophil targeting peptides in PBS.

[4] = Circulating ALT levels in mice after drug administration; format: in vivo, mouse; conditions: 48 hours after drug administration
Description: One of the benefits of targeting of these drugs directly to neutrophils is to decrease their unwanted side effects. As mentioned early, many of these compounds have known side effects with respect to neutrophil differentiation in the bone marrow. Targeting to mature neutrophils decreases this unwanted side effect. To test if side effects are indeed decreased liver enzyme levels were measured in the mice after administration of free Stelazine and neutrophil targeted Stelazine. […] It is thus clear that neutrophil targeting is particularly beneficial for the selected compounds.

[5] = tested on: whole blood samples from healthy human subjects; test: ROS levels in whole blood samples from healthy human subjects, without or with PMA; format: cell-based; conditions: for reduction in ROS in whole blood treated with PMA: higher dose (5 uM)
Description: A high and low concentration were tested for each compound. […] Next, the compounds were tested on whole blood treated with PMA.

Row | Compound | IC50 (human neutrophils [1]; Neutrophil) | IC50 (mouse neutrophils; Neutrophil) | ROS production in the presence of PMA (human neutrophils [1]) | <90% ROS Inhibition (human neutrophils [1]) | <90% ROS Inhibition (mouse neutrophils) | also measured
1 | COC(=O)C1=C(C)NC(C)=C(C(=O)OCC(C)C)C1c1ccccc1[N+](=O)[O-] (centres unmarked) [Nisoldipine] | – | – | more modest reduction | – | – | –
2 | CN(C)C/C=C/C(=O)Nc1cc2c(Nc3ccc(F)c(Cl)c3)ncnc2cc1O[C@H]1CCOC1 [Afatanib Maleate, Afatinib Maleate] | – | 2500 nM | – | – | 8 µM | –
3 | CCCCCCCCCCCCCC(=O)O[C@@H]1[C@@H](C)[C@@]2(O)[C@@H](C=C(CO)C[C@]3(O)C(=O)C(C)=C[C@@H]23)[C@@H]2C(C)(C)[C@]12OC(C)=O [PMA, Phorbol 12-myristate 13-acetate] | – | – | – | – | – | increase in cell death as compared to control [2]: ~50%
4 | CN(C)CCC=C1c2ccccc2CCc2ccccc21 [Amitriptyline] | – | – | – | – | – | ROS inhibition in the screen (human neutrophils [3]): inhibited ROS production
5 | CN(C)CCCN1c2ccccc2CCc2ccc(Cl)cc21 [Clomipramine] | – | – | more effective | 5 µM | 7 µM | ROS inhibitor effectiveness over 100 nm to 10 uM (human neutrophils [1]): most effective ROS inhibitors; ROS inhibition in whole blood treated with PMA ([5]; 5 uM): less strong effect; reduction in ROS in whole blood treated with PMA [5]: > 50%
6 | CC(C)(C)C(=O)Oc1ccc(S(=O)(=O)Nc2ccccc2C(=O)NCC(=O)O)cc1 [Sivelestat] | – | – | – | – | – | increase in cell death as compared to control [2]: < 6%
7 | CC(C)(C)C(=O)/C(=C\c1cccc([N+](=O)[O-])c1)n1cncn1 [Nexinhib] | – | – | – | 5 µM | – | IC50 (human neutrophils [1]): 1500 nM; IC50 (mouse neutrophils): 8000 nM; ROS inhibition in whole blood treated with PMA ([5]; 5 uM): less strong effect; reduction in ROS in whole blood treated with PMA [5]: > 50%
8 | CC(=O)c1c(C)c2cnc(Nc3ccc(N4CCNCC4)cn3)nc2n(C2CCCC2)c1=O [Palbociclib] | – | – | strongly reduced ROS production | – | – | –
9 | CN(C)C(=O)c1cc2cnc(Nc3ccc(N4CCNCC4)cn3)nc2n1C1CCCC1 [Ribociclib] | – | – | more modest reduction | – | – | –

The next lines start with results.

Row | IC50 (human neutrophils [1]; Neutrophil) | IC50 (mouse neutrophils; Neutrophil) | Compound | ROS production in the presence of PMA (human neutrophils [1]) | <90% ROS Inhibition (human neutrophils [1]) | <90% ROS Inhibition (mouse neutrophils) | also measured
10 | 1000 nM | 1500 nM | CCN1CCN(Cc2ccc(Nc3ncc(F)c(-c4cc(F)c5nc(C)n(C(C)C)c5c4)n3)nc2)CC1 [Abemaciclib] | more effective | 2 µM | 5 µM | ROS inhibitor effectiveness over 100 nm to 10 uM (human neutrophils [1]): most effective ROS inhibitors
11 | 1000 nM | 2500 nM | CN1CCN(CCCN2c3ccccc3Sc3ccc(C(F)(F)F)cc32)CC1 [Stelazine, Trifluoperazine] | more effective | 4 µM | 4 µM | ROS inhibitor effectiveness over 100 nm to 10 uM (human neutrophils [1]): most effective ROS inhibitors; ROS levels in LPS treated lungs, luminol/IVIS imaging (LPS treated mice; 4 hours following treatment): had an effect on ROS levels; reduction in ROS in the lungs as compared to the untreated control (LPS treated mice; IV, 48 hours after LPS administration): ~50%; alanine aminotransferase (ALT) levels in the blood [4]: increased alanine aminotransferase (ALT) levels in the blood
12 | 2500 nM | 2000 nM | CCCCOc1ccc(C(=O)CCN2CCCCC2)cc1 [Dyclonine] | – | 7 µM | 5 µM | ROS levels relative to unstimulated neutrophils (human neutrophils [1]; 10 μM): 44 % of negative control cells
13 | 4000 nM | – | CN(C)C/C=C/C(=O)Nc1cc2c(Nc3ccc(F)c(Cl)c3)ncnc2cc1O[C@H]1CCOC1 [Afatinib] | more modest reduction | 9 µM | – | –
14 | 200 nM | 150 nM | COc1cc(Nc2c(C#N)cnc3cc(OCCCN4CCN(C)CC4)c(OC)cc23)c(Cl)cc1Cl [Bosutinib] | more effective | 0.75 µM | 1.5 µM | ROS inhibitor effectiveness over 100 nm to 10 uM (human neutrophils [1]): most effective ROS inhibitors; ROS inhibition in whole blood treated with PMA ([5]; 1 uM): this inhibition was quickly lost; ROS inhibition in whole blood treated with PMA ([5]; 5 uM): highly effective at ROS inhibition

Reference: patent US20240358711A1, “COMPOUNDS FOR NEUTROPHIL ROS INHIBITION” (IMMUNYX PHARMA LTD., priority 2021, published 2024)
